Measurements published in patent US20240382399A1, “ANTISEBOGENIC COMPOSITION, FORMULATION AND USE OF THE COMPOSITION” (CHEMYUNION LTDA., priority 2021, published 2024).

How the values were obtained:
C. acnes = details: concentrations of 6.9 mM (1 mg/mL) and 8.6 mM (1 mg/mL); cited from earlier work
5-alpha reductase type 1 = assay: Expression of 5-alpha reductase type 1 in cultured human keratinocytes (real-time PCR); format: cell-based; details: Testosterone 1.10^-8 mol/L, 24 hours; compared to the baseline control, P<0.05
Procedure: The objective of the test was to evaluate the effects of P19/7 on the expression of 5-alpha reductase type 1 in cultured human keratinocytes. The enzyme 5-alpha-reductase […] acts in the conversion of testosterone into dihydrotestosterone (DHT), a steroid responsible for modulating sebaceous secretion.
To carry out the assay, commercially obtained human keratinocytes (Rio de Janeiro Cell Bank—BCRJ) were cultivated in specific culture media and maintained in a humid incubator at 37° C. containing 5% CO2. When they reached confluence (3rd to 5th passage), cells were seeded in a 6-well plate and incubated with 0.0049% (w/v) P19/7+Testosterone (1.10^−8 mol/L) or Testosterone (1.10^−8 mol/L) for a period of 24 hours. After 24 hours of incubation, RNA was extracted using the PureLink RNA Mini Kit (Thermo Fisher) and quantified using the NanoDrop Lite spectrophotometer (Thermo Scientific). Tests were performed on a StepOnePlus device (Applied Byosystems). To perform real-time PCR, a commercially available analysis system was used (TaqMan® Gene Expression Assays; SRD5A1: (HS00971643_G1, 5-alpha reductase type 1); B2M: Hs00984230_m1; Applied Biosystems), with primers and probes based on sequence consensus using the TaqMan® RNA-to-CT™ 1-step kit (Applied Byosystems). […] Gene expression of 5-alpha reductase was calculated according to Pfaffl (2001).

Row | Compound | inhibitory effect on the growth of C. acnes (C. acnes) | increase of relative expression of type 1 5-alpha-reductase (5-alpha reductase type 1)
1 | CCCCCCCC(=O)O [caprylic acid] | no apparent inhibitory effect | 
2 | C[C@]12CC[C@H]3[C@@H](CCC4=CC(=O)CC[C@@]43C)[C@@H]1CC[C@@H]2O [testosterone, Testosterone] |  | 13%
